Assay results: patent publication US7737140B2, “Therapeutic compounds” (Allergan, Inc., priority 2008, dated 2010)

Tested on: lashes and adjacent hairs of the eyelids
Assay: Clinical observation of lashes and adjacent hairs in glaucoma patients treated with bimatoprost in one eye
Format: in vivo
Source text: In the course of treating patients having glaucoma, treatment may only be appropriate in one eye. […] The lash appearance on the lids of the treated eyes would have appeared quite attractive if it represented a bilateral phenomenon. As a result of its asymmetric nature, the long lashes on one side could be construed as disturbing from a cosmetic standpoint. A systemic examination was preformed as a result of the asymmetric phenomenon. It soon became apparent that this altered appearance was not an isolated finding. […] Definite differences could be identified to varying degrees in the lashes and adjacent hairs of all patients who were taking the drug on a unilateral basis for longer than 6 months.
The changes in the lashes were apparent on gross inspection in several patients once attention was focused on the issue. In those with light colored hair and lashes, the differences were only seen easily with the aid of the high magnification and lighting capabilities of the slit lamp biomicroscope. In the course of glaucoma follow-up examination, attention is generally immediately focused on the eye itself. As a result of the high power magnification needed only one eye is seen at a time and the eye is seen at a high enough power that the lashes are not in focus. […]

**Q.** What does the source list for `CCNC(=O)CCC/C=C\C[C@@H]1[C@@H](/C=C/[C@@H](O)CCc2ccccc2)[C@H](O)C[C@@H]1O` [bimatoprost]?
**A.** hair growth in treated versus control areas (conclusion from multiple parameters of hair appearance in many subjects): stimulated; lashes in the treated eye compared with the non-treated eye (glaucoma patient treated with bimatoprost in only one eye): longer, thicker, and fuller
